IC50, Increment % and PGE2 concentration data for 23 molecules are collected here from patent US10787425B2, “Thiazolidinedione derivative and use thereof” (INDUSTRY-ACADEMIC COOPERATION FOUNDATION CHOSUN UNIVERSITY, priority 2016, dated 2020).

By IC50 is commonly meant the midpoint of a concentration-inhibition curve. A lower IC50 goes with inhibition by little substance.

For one assay, the target named is 15-PGDH (Homo sapiens (Human), UniProt P15428). The assay is described as follows: 15-PGDH inhibitory activity (NADH at 340 nm). The settings on record: concentration inhibiting 50% of 15-PGDH activity; purified 15-PGDH, 21 μM PGE2, 0.25 mM NAD+. In kind it is biochemical. The method, then: The 15-PGDH cDNA plasmid containing the BamHI of the pGEX-2T expression vector and EcoRI restriction enzyme sites was transfected into E. coli BL-21 LysS by using conventional methods used in the art. Then, the transfected cells were cultured in an LB medium (500 ml) containing 50 μg/ml of ampicillin at a temperature of 37° C. and at a rate of 220 rpm until the OD600 reached 0.6. Then, isopropyl beta-D-thiogalactoxide (1 mM) was added and the cells were further cultured at the temperature of 25° C. for 12 hours. The cells were then centrifuged at the gravity of 4,000 g for 30 minutes at a temperature of 4° C. to collect a cell pellet. The cell pellet was dissolved in 20 ml of cell lysis buffer (containing 1×PBS buffer (pH 7.4): 1 mM EDTA and 0.1 mM DTT) and sonicated at a temperature of 4° C. for 14×10 s. The digested cells were centrifuged at the gravity of 4,000 g for 20 minutes at a temperature of 4° C. The supernatant was then slowly loaded onto a glutathione-sepharose 4B column equilibrated at a temperature of 4° C. with cell lysis buffer [containing 1×PBS buffer (pH 7.4), 1 mM EDTA, and 0.1 mM DTT]. Washing was performed thereon by using a dissolution buffer until the OD280 reached 0.005 or less. Then, 15-PGDH was eluted from the glutathione-sepharose 4B column at room temperature for 5 minutes by using an elution buffer [containing 50 mM Tris-HCl (pH 8.0), 10 mM reduced glutathione, 1 mM EDTA, and 0.1 mM DTT). The concentration of the purified enzyme was measured, and the purification level thereof was confirmed by SDS-PAGE.
That is, the cells were treated with a solution including 50 mM Tris-HCl (pH 7.5), 0.1 mM DTT, 0.25 mM (NAD+), 10 μg of purified 15-PGDH enzyme, 21 μM PGE2. and various concentrations (0.0001 μM to 64 μM) of the derivative compound according to the present disclosure. In this case, the total volume of the solution was 2 ml. Then, the absorbance of the reaction mixture was recorded at the wavelength of 340 nm. To measure the activity of the derivative compounds according to the present disclosure, which is an inhibitor of 15-PGDH, the average value of NADH absorbance at 340 nm at various concentrations was obtained from a standard curve.

A further assay deals with A549 cells. The assay is described as follows: Measurement of PGE2 concentration in A549 cell medium (ELISA). Type of assay: cell-based, human. The settings on record: for Increment %: PGE2 concentration versus PBS control, 5 μM, 12 hours; for PGE2 concentration: inhibitor 5 μM, medium collected after 12 hours, ELISA. Here is the method:
A549 cells were subcultured in RPMI 1640 medium (containing+8% fetal bovine serum (FBS) and antibiotic-antimycotic (AA)) for one week, and then, inoculated in a 6-well plate at 2.5×10^5 cells/mL (5×10^5 cells/well) and cultured for 24 hours in a 5% CO2 incubator at a temperature of 37° C. A549 cells are adenocarcinomic human alveolar basal epithelial cells which are derived from lung tissues. When cells were grown to about 80% confluence, a 15-PGDH inhibitor in 1×PBS buffer was injected at a concentration of 5 μM. To compare the results, the same amount of 1×PBS buffer was injected into a negative control, and, the treated cells were cultured in 5% CO2 incubator. After 12 hours, the medium was collected and the collected medium was assayed to measure PGE2 concentration by using an ELISA Kit (Abcam) according to the manufacturer's instructions. The concentration may be expressed as an exact value by plotting the calibration curve by using the absorbance value after diluting the standard in the medium by concentration.
Background: An ELISA detects its analyte on a solid surface through an enzyme-linked reagent.

15-PGDH, sequence (P15428 whole entry): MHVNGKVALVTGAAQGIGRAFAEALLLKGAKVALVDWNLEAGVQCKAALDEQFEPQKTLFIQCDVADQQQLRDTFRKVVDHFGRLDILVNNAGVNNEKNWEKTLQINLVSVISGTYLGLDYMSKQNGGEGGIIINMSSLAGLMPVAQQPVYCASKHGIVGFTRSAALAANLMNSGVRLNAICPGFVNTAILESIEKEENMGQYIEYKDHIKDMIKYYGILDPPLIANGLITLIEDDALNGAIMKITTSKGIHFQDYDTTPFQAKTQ

`O=C1NC(=O)/C(=C/c2ccc(OC(=O)C3CCC3)c(Cl)c2)S1` [Compound 2, (Z)-2-chloro-4-((2,4-dioxothiazolidin-5-ylidene)methyl)phenyl cyclobutanecarboxylate] returned an IC50 against 15-PGDH of 782 nM. Also, in the assay on A549 cells, the Increment % is reported as 9.96% and the PGE2 concentration was 301.0364 pg/mL.

`O=C1NC(=O)/C(=C/c2ccc(OC(=O)C3CCCC3)c(Cl)c2)S1` [Compound 3, (Z)-2-chloro-4-((2,4-dioxothiazolidin-5-ylidene)methyl)phenyl cyclopentanecarboxylate] displayed a 50% inhibitory concentration (IC50) against 15-PGDH of 196 nM. Further, in the assay on A549 cells, the Increment % is given as −30.1% and the PGE2 concentration turned out to be 191.3645 pg/mL.

At 15-PGDH, `O=C(CC1CCCC1)Oc1ccc(/C=C2\SC(=O)NC2=O)cc1Cl` [Compound 4, (Z)-2-chloro-4-((2,4-dioxothiazolidin-5-ylidene)methyl)phenyl 2-cyclopentylacetate] gave a half-inhibitory concentration (IC50) of 78.3 nM. In addition, in the assay on A549 cells, the Increment % stood at 103.32% and the PGE2 concentration came to 556.6271 pg/mL.

At 15-PGDH, `O=C(CCC1CCCC1)Oc1ccc(/C=C2\SC(=O)NC2=O)cc1Cl` [Compound 5, (Z)-2-chloro-4-((2,4-dioxothiazolidin-5-ylidene)methyl)phenyl 3-cyclopentylpropanoate] came in with a half-maximal inhibitory concentration (IC50) of 30.5 nM. In the assay on A549 cells, the Increment % is listed as 83.07% and the PGE2 concentration amounted to 501.1889 pg/mL.

`O=C1NC(=O)/C(=C/c2ccc(OC(=O)C3CCCCC3)c(Cl)c2)S1` [Compound 6, (Z)-2-chloro-4-((2,4-dioxothiazolidin-5-ylidene)methyl)phenyl cyclohexanecarboxylate] had an IC50 against 15-PGDH of 137 nM. In the assay with A549 cells, the Increment % is listed as 27.71% and the PGE2 concentration was 349.6304 pg/mL.

Turning to `O=C(CC1CCCCC1)Oc1ccc(/C=C2\SC(=O)NC2=O)cc1Cl` [Compound 7, (Z)-2-chloro-4-((2,4-dioxothiazolidin-5-ylidene)methyl)phenyl 2-cyclohexylacetate], 23.8 nM corresponded to half-maximal inhibition at 15-PGDH (IC50). In addition, in the assay on A549 cells, the Increment % came out at 20.36% and the PGE2 concentration worked out at 329.5084 pg/mL.

Regarding `O=C(CCC1CCCCC1)Oc1ccc(/C=C2\SC(=O)NC2=O)cc1Cl` [Compound 8, (Z)-2-chloro-4-((2,4-dioxothiazolidin-5-ylidene)methyl)phenyl 3-cyclohexylpropanoate], in the assay on A549 cells, the Increment % is reported as 221.32% and the PGE2 concentration turned out to be 879.6746 pg/mL.

For the molecule `O=C(CCCC1CCCCC1)Oc1ccc(/C=C2\SC(=O)NC2=O)cc1Cl` [Compound 9, (Z)-2-chloro-4-((2,4-dioxothiazolidin-5-ylidene)methyl)phenyl 4-cyclohexylbutanoate], half-maximal inhibition against 15-PGDH (IC50) was put at 20.2 nM. In addition, in the assay with A549 cells, the Increment % worked out at 189.34% and the PGE2 concentration was determined as 792.1232 pg/mL.

The molecule `O=C(CCCCC1CCCCC1)Oc1ccc(/C=C2\SC(=O)NC2=O)cc1Cl` [Compound 10, (Z)-2-chloro-4-((2,4-dioxothiazolidin-5-ylidene)methyl)phenyl 5-cyclohexylpentanoate] gave an IC50 on 15-PGDH of 31.7 nM. Moreover, in the assay with A549 cells, the Increment % was determined as 89.99% and the PGE2 concentration was found to be 520.1337 pg/mL.

Regarding `O=C(O)c1ccccc1.O=C1NC(=O)/C(=C/c2ccc(OC(=O)c3ccccc3)c(Cl)c2)S1` [Compound 11, (Z)-2-chloro-4-((2,4-dioxothiazolidin-5-ylidene)methyl)phenyl benzoate], the half-maximal inhibitory concentration (IC50) against 15-PGDH is 31.9 nM. In addition, in the assay on A549 cells, the Increment % is given as −78.32% and the PGE2 concentration is 25.95 pg/mL.

`O=C(Cc1ccccc1)Oc1ccc(/C=C2\SC(=O)NC2=O)cc1Cl` [Compound 12, (Z)-2-chloro-4-((2,4-dioxothiazolidin-5-ylidene)methyl)phenyl 2-phenylacetate] displayed an IC50 at 15-PGDH of 63.5 nM. In the assay on A549 cells, the Increment % is −34.89% and the PGE2 concentration turned out to be 77.92 pg/mL.

`O=C(CCc1ccccc1)Oc1ccc(/C=C2\SC(=O)NC2=O)cc1Cl` [Compound 13, (Z)-2-chloro-4-((2,4-dioxothiazolidin-5-ylidene)methyl)phenyl 3-phenylpropanoate] showed an IC50 against 15-PGDH of 41.8 nM. In addition, in the assay with A549 cells, the Increment % turned out to be 16.39% and the PGE2 concentration worked out at 139.2902 pg/mL.

Regarding `O=C(CCC1CCCCC1)Oc1ccc(/C=C2\SC(=O)NC2=O)cc1Br` [Compound 23, (Z)-2-bromo-4-((2,4-dioxothiazolidin-5-ylidene)methyl)phenyl 3-cyclohexylpropanoate], in the assay on A549 cells, the Increment % was found to be 311.02% and the PGE2 concentration worked out at 1040.03 pg/mL.

For `COc1cc(/C=C2\SC(=O)NC2=O)ccc1OC(=O)CCC1CCCCC1` [Compound 38, (Z)-4-((2,4-dioxothiazolidin-5-ylidene)methyl)-2-methoxyphenyl 3-cyclohexylpropanoate], in the assay on A549 cells, the Increment % worked out at 323.99% and the PGE2 concentration was found to be 859.6813 pg/mL.

With `CCOc1cc(/C=C2\SC(=O)NC2=O)ccc1OC(=O)CCC1CCCCC1` [Compound 53, (Z)-4-((2,4-dioxothiazolidin-5-ylidene)methyl)-2-ethoxyphenyl 3-cyclohexylpropanoate], in the assay with A549 cells, the Increment % is on record as 189.34% and the PGE2 concentration turned out to be 792.73 pg/mL.

For the molecule `O=C1NC(=O)/C(=C/c2ccc(OC(=O)C3CCC3)cc2)S1` [Compound 62, (Z)-4-((2,4-dioxothiazolidin-5-ylidene)methyl)phenyl cyclobutanecartboxylate], in the assay with A549 cells, the Increment % stood at 12.13% and the PGE2 concentration is 178.4361 pg/mL.

As to `O=C(CCC1CCCCC1)Oc1ccc(/C=C2\SC(=O)NC2=O)cc1` [Compound 68, (Z)-4-((2,4-dioxothiazolidin-5-ylidene)methyl)phenyl 3-cyclohexylpropanoate], in the assay on A549 cells, the Increment % was 97.45% and the PGE2 concentration is 255.0535 pg/mL.

On to `O=C1NC(=O)/C(=C/c2ccc(OC(=O)c3ccccc3)cc2)S1` [Compound 71, (Z)-4-((2,4-dioxothiazolidin-5-ylidene)methyl)phenyl benzoate], for which, in the assay with A549 cells, the Increment % is given as −58.38% and the PGE2 concentration was found to be 53.76 pg/mL.

Consider `O=C1NC(=O)/C(=C/c2cccc(OC(=O)C3CCCCC3)c2Cl)S1` [Compound 81, (Z)-2-chloro-3-((2,4-dioxothiazolidin-5-ylidene)methyl)phenyl cyclohexanecarboxylate], for which, in the assay with A549 cells, the Increment % is given as 10.32% and the PGE2 concentration amounted to 232.1268 pg/mL.

With `O=C(CCC1CCCCC1)Oc1cccc(/C=C2\SC(=O)NC2=O)c1Cl` [Compound 83, (Z)-2-chloro-3-((2,4-dioxothiazolidin-5-ylidene)methyl)phenyl 3-cyclohexylpropanoate], in the assay with A549 cells, the Increment % stood at 201.32% and the PGE2 concentration amounted to 634.0143 pg/mL.

With `O=C(CCC1CCCC1)Oc1ccc(/C=C2\SC(=O)NC2=O)c(Cl)c1` [Compound 95, (Z)-3-chloro-4-((2,4-dioxothiazolidin-5-ylidene)methyl)phenyl 3-cyclopentylpropanoate], in the assay on A549 cells, the Increment % worked out at 113.4574% and the PGE2 concentration worked out at 238.3412 pg/mL.

For the molecule `O=C(CCC1CCCCC1)Oc1ccc(/C=C2\SC(=O)NC2=O)c(Cl)c1` [Compound 98, (Z)-3-chloro-4-((2,4-dioxothiazolidin-5-ylidene)methyl)phenyl 3-cyclohexylpropanoate], in the assay with A549 cells, the Increment % came out at 138.7487% and the PGE2 concentration worked out at 266.5808 pg/mL.

Turning to `O=C(CCCC1CCCCC1)Oc1ccc(/C=C2\SC(=O)NC2=O)c(Cl)c1` [Compound 99, (Z)-3-chloro-4-((2,4-dioxothiazolidin-5-ylidene)methyl)phenyl 4-cyclohexylbutanoate], in the assay on A549 cells, the Increment % amounted to 66.7717% and the PGE2 concentration is 186.2131 pg/mL.
